Data: ChEMBL document CHEMBL1201862, “PubChem BioAssay data set” (2004)
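Step 1: Grow cells in 96-well plates. Step 2: Expose to compound for 48 hours at 5 concentrations. Step 3: Interpolate endpoints linearly; if unreached, use highest concentration. At the GI50, growth is halved.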 The source made the active and inactive calls. Rule as the data show it: active = GI50 up to about 1.1 µM and inactive = higher.

Key:
Assay in all cases: NCI-60 cell line screen, 48 h
CAKI-1 = system: CAKI-1
HOP-62 = system: HOP-62
SF-539 = system: SF-539
786-0 = system: 786-0
OVCAR-8 = system: OVCAR-8
NCI-H226 = system: NCI-H226
SR = system: SR
IGROV-1 = system: IGROV-1
HOP-92 = system: HOP-92
NCI/ADR-RES = system: NCI/ADR-RES
SF-268 = system: SF-268
U-251 = system: U-251
RPMI-8226 = system: RPMI-8226
DU-145 = system: DU-145
KM12 = system: KM12
NCI-H23 = system: NCI-H23
MOLT-4 = system: MOLT-4
PC-3 = system: PC-3
HCT-15 = system: HCT-15
HCT-116 = system: HCT-116
MDA-N = system: MDA-N
TK-10 = system: TK-10
SK-MEL-28 = system: SK-MEL-28
CCRF-CEM = system: CCRF-CEM
OVCAR-4 = system: OVCAR-4
SK-MEL-2 = system: SK-MEL-2
RXF 393 = system: RXF 393
LOX IMVI = system: LOX IMVI
OVCAR-3 = system: OVCAR-3
BT-549 = system: BT-549
EKVX = system: EKVX
SK-OV-3 = system: SK-OV-3
SW-620 = system: SW-620
A549 = system: A549
MCF7 = system: MCF7
MDA-MB-231 = system: MDA-MB-231
K562 = system: K562
MDA-MB-435 = system: MDA-MB-435
SNB-75 = system: SNB-75
SF-295 = system: SF-295
Hs-578T = system: Hs-578T
M14 = system: M14
Malme-3M = system: Malme-3M
T47D = system: T47D
NCI-H522 = system: NCI-H522
UO-31 = system: UO-31
HL-60 = system: HL-60
SK-MEL-5 = system: SK-MEL-5
HT-29 = system: HT-29
SN12C = system: SN12C
COLO 205 = system: COLO 205
ACHN = system: ACHN
OVCAR-5 = system: OVCAR-5
UACC-257 = system: UACC-257
A498 = system: A498
NCI-H460 = system: NCI-H460
HCC 2998 = system: HCC 2998
SNB-19 = system: SNB-19
UACC-62 = system: UACC-62

## COc1ccc(/N=N/c2ccc3oc(=O)c(C(=O)Nc4ccc(OC)cc4)cc3c2)cc1
CAKI-1
  GI50: 25.6 µM (inactive)
HOP-62
  GI50: 13.9 µM (inactive)
SF-539
  GI50: 6.95 µM (inactive)
786-0
  GI50: 14.1 µM (inactive)
OVCAR-8
  GI50: 14.3 µM (inactive)
NCI-H226
  GI50: 13.1 µM (inactive)
SR
  GI50: 12 µM (inactive)
IGROV-1
  GI50: 16.1 µM (inactive)
HOP-92
  GI50: 18.4 µM (inactive)
NCI/ADR-RES
  GI50: 16.2 µM (inactive)
SF-268
  GI50: 9.02 µM (inactive)
U-251
  GI50: 13.4 µM (inactive)
RPMI-8226
  GI50: 16.3 µM (inactive)
DU-145
  GI50: 15.6 µM (inactive)
KM12
  GI50: 13.8 µM (inactive)
NCI-H23
  GI50: 17.4 µM (inactive)
MOLT-4
  GI50: 6.15 µM (inactive)
PC-3
  GI50: 11 µM (inactive)
HCT-15
  GI50: 6.79 µM
HCT-116
  GI50: 11.2 µM (inactive)
MDA-N
  GI50: 25.5 µM (inactive)
TK-10
  GI50: 22.4 µM (inactive)
SK-MEL-28
  GI50: 15.6 µM (inactive)
CCRF-CEM
  GI50: 4.89 µM (inactive)
OVCAR-4
  GI50: 13.4 µM (inactive)
SK-MEL-2
  GI50: 14 µM (inactive)
RXF 393
  GI50: 27 µM (inactive)
LOX IMVI
  GI50: 3.71 µM (inactive)
OVCAR-3
  GI50: 19.2 µM (inactive)
BT-549
  GI50: 4.93 µM (inactive)
EKVX
  GI50: 28.5 µM (inactive)
SK-OV-3
  GI50: 19.5 µM (inactive)
SW-620
  GI50: 18.2 µM (inactive)
A549
  GI50: 31.4 µM (inactive)
MCF7
  GI50: 16.1 µM (inactive)
MDA-MB-231
  GI50: 23.5 µM (inactive)
K562
  GI50: 18.1 µM (inactive)
MDA-MB-435
  GI50: 16.7 µM (inactive)
SNB-75
  GI50: 16.2 µM (inactive)
SF-295
  GI50: 21.3 µM (inactive)
Hs-578T
  GI50: 20.9 µM (inactive)
M14
  GI50: 16.9 µM (inactive)
Malme-3M
  GI50: 18.6 µM (inactive)
T47D
  GI50: 4.23 µM (inactive)
NCI-H522
  GI50: 26.5 µM (inactive)
UO-31
  GI50: 14 µM (inactive)
HL-60
  GI50: 5.69 µM (inactive)
SK-MEL-5
  GI50: 14.9 µM (inactive)
HT-29
  GI50: 22.6 µM (inactive)
SN12C
  GI50: 14 µM (inactive)
COLO 205
  GI50: 20.8 µM (inactive)
ACHN
  GI50: 18.2 µM (inactive)
OVCAR-5
  GI50: 17.8 µM (inactive)
UACC-257
  GI50: 23.8 µM (inactive)
A498
  GI50: 2.77 µM (inactive)
NCI-H460
  GI50: 20.4 µM (inactive)
HCC 2998
  GI50: 19.4 µM (inactive)
SNB-19
  GI50: 22.5 µM (inactive)

## CC(=O)c1ccc2c(c1)CC1(C2)Cc2ccccc2C1=O (configuration not stated)
CAKI-1
  GI50: 33.1 µM (inactive)
HOP-62
  GI50: > 100 µM (inactive)
SF-539
  GI50: > 100 µM (inactive)
786-0
  GI50: 77.8 µM (inactive)
OVCAR-8
  GI50: 37.9 µM (inactive)
NCI-H226
  GI50: 85.3 µM (inactive)
SR
  GI50: 20.8 µM (inactive)
IGROV-1
  GI50: 79.1 µM (inactive)
HOP-92
  GI50: 22.4 µM (inactive)
NCI/ADR-RES
  GI50: 16 µM (inactive)
SF-268
  GI50: 74 µM (inactive)
U-251
  GI50: 67.5 µM (inactive)
RPMI-8226
  GI50: 33.6 µM (inactive)
DU-145
  GI50: > 100 µM (inactive)
KM12
  GI50: 43.3 µM (inactive)
NCI-H23
  GI50: 78.9 µM (inactive)
MOLT-4
  GI50: 29.6 µM (inactive)
PC-3
  GI50: 35.2 µM (inactive)
HCT-15
  GI50: 51.5 µM
HCT-116
  GI50: 44.1 µM (inactive)
MDA-N
  GI50: 45.1 µM (inactive)
TK-10
  GI50: 19.4 µM (inactive)
SK-MEL-28
  GI50: 64.3 µM (inactive)
CCRF-CEM
  GI50: 29.5 µM (inactive)
OVCAR-4
  GI50: 31.4 µM (inactive)
SK-MEL-2
  GI50: 71 µM (inactive)
RXF 393
  GI50: 42.5 µM (inactive)
UACC-62
  GI50: 55.6 µM (inactive)
LOX IMVI
  GI50: 36.1 µM (inactive)
OVCAR-3
  GI50: 50.9 µM (inactive)
BT-549
  GI50: 43.4 µM (inactive)
EKVX
  GI50: 24.2 µM (inactive)
SK-OV-3
  GI50: > 100 µM (inactive)
SW-620
  GI50: > 100 µM (inactive)
A549
  GI50: 37.8 µM (inactive)
MCF7
  GI50: 26.7 µM (inactive)
MDA-MB-231
  GI50: 57.3 µM (inactive)
K562
  GI50: 36.1 µM (inactive)
MDA-MB-435
  GI50: 34.2 µM (inactive)
SNB-75
  GI50: 34.5 µM (inactive)
SF-295
  GI50: 56 µM (inactive)
Hs-578T
  GI50: 39.8 µM (inactive)
M14
  GI50: 31 µM (inactive)
Malme-3M
  GI50: 28.4 µM (inactive)
T47D
  GI50: 25.6 µM (inactive)
NCI-H522
  GI50: 21.5 µM (inactive)
UO-31
  GI50: 42.4 µM (inactive)
HL-60
  GI50: 25.1 µM (inactive)
SK-MEL-5
  GI50: 21.8 µM (inactive)
HT-29
  GI50: 14.6 µM (inactive)
SN12C
  GI50: 69 µM (inactive)
COLO 205
  GI50: 34 µM (inactive)
ACHN
  GI50: 54 µM (inactive)
OVCAR-5
  GI50: > 100 µM (inactive)
UACC-257
  GI50: 15.5 µM (inactive)
A498
  GI50: > 100 µM (inactive)
NCI-H460
  GI50: 62.1 µM (inactive)
HCC 2998
  GI50: 40.6 µM (inactive)
SNB-19
  GI50: > 100 µM (inactive)
